Experiment [1] deals with SW480 cells. Kind of experiment: Cell proliferation assay, SW480 cells. Format: cell-based, human. Conditions: read-out: IC50 values, inhibition of growth. As for the experimental part:
SW480, HT-29 and HCT-15 human colon cancer cells were provided by Dr. Stan Hamilton (M. D. Anderson Cancer Center (Houston, Tex.). Panc-28 human pancreatic cancer cells and 3T3-L1 pre-adipocytes were obtained from American Type Culture Collection (Manassas, Va.). SW480, HT-29 and Panc-28 cells were maintained in Dulbecco's modified/Ham's F-12 (Sigma-Aldrich, St Louis, Mo.) with phenol red supplemented with 0.22% sodium bicarbonate, 0.011% sodium pyruvate, 5% fetal bovine serum, and 10 mL/L 100× antibiotic antimycotic solution (Sigma). HCT-15 cells were maintained in RPMI 1640 (Sigma) supplemented with 0.22% sodium bicarbonate, 0.011% sodium pyruvate, 0.45% glucose, 0.24% HEPES, 10% fetal bovine serum, and 10 mL/L of 100× antibiotic antimycotic solution (Sigma). Cells were maintained at 37° C. in the presence of 5% CO2.
This assay is performed in 12-well tissue culture plates at the concentration of 2×10^4 cells per well, using DMEM/Ham's F-12 media containing 2.5% charcoal stripped FBS. The cells were counted on the initial day using a Z1 cell counter (Beckman Coulter, Fullerton, Calif.) and then were treated either with vehicle (DMSO) or the indicated triterpenoid compounds, each sample in triplicate. Every 48 hr, fresh medium was added along with the indicated compounds. The count of the cells was taken after 2, 4 and 6 days. The results are expressed as means±S.E for each set of triplicate.

In experiment [2] the test system is PPARγ. Kind of experiment: PPARγ transactivation (PPARγ-GAL4/pGAL4, PPRE3-luc) in SW480 cells. It is filed as cell-based. Conditions: for transactivation, PPARγ-GAL4/pGAL4 and PPRE3-luc: SW480, 2.5-10 μM; for effect of PPARγ antagonist T007 on induced activities: SW480, cotreatment with T007. The procedure:
(§1) Cells were seeded onto the 12-well plates and 0.4 μg of GAL4-Luc, 0.04 μg of β-GAL, 0.04 μg of GAL4DBD-PPARγ, and 0.4 μg of p21-luc(FL) containing −2325 to +8 insert, 0.4 μg of p21-luc (−124) containing −124 to +8 insert and 0.4 μg of p21-LUC (−60) containing −60 to +8 insert were transfected using LipofectAMINE reagent (Invitrogen) following the manufacturer's protocol. Cells were treated either with vehicle or respective compounds suspended in complete medium after 6 hr of transfection. Cell lysate is extracted after 20-22 hr by adding 100 μl of 1× reporter lysis buffer per well and 30 μl of this extract is used to quantitate the luciferase activity using Lumicount (Perkin-Elmer Life and Analytical Sciences). Each experiment is done in triplicate and the results are normalized to the β-GAL activity.

For experiment [3], the system named is PPARγ. The experiment can be described thus: PPARγ transactivation (PPARγ-GAL4/pGAL4, PPRE3-luc) in Panc-28 cells. Format: cell-based. The procedure:
as §1

Experiment [4] deals with Panc-28 cells. Kind of experiment: Western blot of p21, p27, cyclin D1 in Panc-28 cells. Format: cell-based, human. Conditions: for effect of T007 on induction of p21 protein: 5 μM compound plus 10 μM T007; for cyclin D1 expression / p27 expression: Panc-28; for p21 protein expression: Panc-28, 24 hr. The procedure:
(§2) SW480, HT-29, HCT-15 and Panc-28 (3×10^5) colon cancer cells were seeded in 6-well tissue culture plates in DMEM/Ham's F-12 medium containing 2.5% charcoal-stripped FBS. Protein is extracted from the cells treated either with vehicle or indicated compounds suspended for 24 hr except for caveolin-1 protein which was done for 72 hr. Samples were extracted in high salt buffer [50 mmol/L HEPES, 500 mmol/L NaCl, 1.5 mmol/L MgCl2, 1 mmol/L EGTA, 10% glycerol, and 1% Triton X-100 (pH 7.5), and 5 μL/mL protease inhibitor cocktail (Sigma-Aldrich)]. Samples were incubated at 100° C. for 2 min, separated on either 10% or 12% SDS-PAGE gels and then transferred to polyvinylidene difluoride membrane (PVDF; Bio-Rad, Hercules, Calif.). The PVDF membrane was blocked in 5% TBST-Blotto (10 mM Tris HCl, 150 mM NaCl, pH 8.0, 0.05% Triton X-100, and 5% nonfat dry milk) for about 30 min and was then incubated in fresh 5% TBST-Blotto with 1:1000 for caveolin-1 (Santa Cruz Biotechnology, Santa Cruz, Calif.), 1:1000 for p21 (BD Pharmingen, Frank lakes, NJ) and 1:10000 for β-actin (Sigma) primary antibody overnight with gentle shaking at 4° C. After washing with TBST for 10 min, the membrane was incubated with respective secondary antibody (1:5000) (Santa cruz, Calif.) in 5% TBST-Blotto for 3 hr. The membrane is then washed with TBST for 10 min, incubated with chemiluminiscence reagent from Perkin Elmer for one min and then exposed to Kodak X-OMAT AR autoradiography film (Eastman Kodak, Rochester, N.Y.).

Experiment [5] has as its system p21 promoter. The experiment can be described thus: p21 promoter luciferase transactivation in Panc-28 cells. It is filed as cell-based, human. Conditions: for transactivation, p21-luc(Fl) (−2325 to +8): Panc-28; for effect of T007 on induced p21-luc(Fl) luciferase activity: cotreatment with T007. The procedure:
as §1

Experiment [6] relates to SW480 cells. Kind of experiment: Caveolin-1 expression (Western blot) in SW480 cells. Conditions: SW480, 72 hr. It is filed as cell-based, human. The procedure:
as §2

Experiment [7] concerns HT-29 cells. Kind of experiment: KLF4 mRNA (RT-PCR) in HT-29 cells. It is filed as cell-based, human. Conditions: for KLF4 mRNA levels: HT-29; for effect of T007 on induction of KLF4 mRNA: HT-29, cotreatment with T007. The procedure: SW480 and HT29 colon cancer cells were treated either with vehicle (DMSO) or indicated compounds and after 24 hr total RNA was extracted using RNeasy Mini kit (Qiagen, Inc., Valencia, Calif.). RNA concentration was measured by UV 260:280 nm absorption ratio and 2 μg RNA was used to synthesize cDNA using Reverse Transcription System (Promega). PCR conditions were as follows: initial denaturation at 94° C. (1 min) followed by 28 cycles of denaturation for 30 s at 94° C., annealing for 60 s at 55° C. and extension at 72° C. for 60 s and a final extension step at 72° C. for 5 min. The mRNA levels were normalized using GAPDH as an internal housekeeping gene. Primers obtained from IDT and used for amplification are as follows: KLF4 (sense 5′-CTATGGCAGGGAGTCCGCTCC-3′ (SEQ ID NO: 1); antisense 5′-ATGACCGACGGGCTGCCGTAC-3′ (SEQ ID NO: 2)) and GAPDH (sense 5′-ACGGATTTGGTCGTATTGGGCG-3′ (SEQ ID NO: 3); antisense 5′-CTCCTGGAAGATGGTGATGG-3′ (SEQ ID NO: 4). PCR products were electrophoresed on 1% agarose gels containing ethidium bromide and visualized under UV transillumination.

In experiment [8] the test system is PPARγ-GAL4 chimera. Kind of experiment: PPARγ-GAL4 chimera activation (FIG. 13C). It is filed as cell-based.

The values below come from patent publication US20090203661A1, “Betulinic acid, derivatives and analogs thereof and uses therefor” (priority 2006, published 2009).

Read-outs that look alike come from different tables or passages of the source.

`COC(=O)C12CCC(C(C)C)C1C1CCC3C4(C)C=C(C#N)C(=O)C(C)(C)C4CCC3(C)C1(C)CC2` (centres unmarked) [CN-BA-Me, Methyl 2-cyano-lup-1-en-3-oxo-20-oate]: the IC50 in experiment [1] lay in the range of 1000 to 2500 nM. In experiment [2], the “transactivation, PPARγ-GAL4/pGAL4 and PPRE3-luc” value is “induced transactivation”; the “effect of PPARγ antagonist T007 on induced activities” value is “inhibited by T007”. The “induction, PPARγ-GAL4/pGAL4” value in experiment [3] (Panc-28) is “minimal induction”. Besides, the “induction, PPRE3-luc” value in experiment [3] (Panc-28, data not shown) is “no induction”. In experiment [4], the “effect of T007 on induction of p21 protein” value (“effect … of p21 protein” below) is “significantly inhibited”, the “cyclin D1 expression” value is listed as “downregulation of cyclin D1”, the p27 expression entry is given as “induction of p27” and the p21 protein expression entry is on record as “induce p21 protein expression”. In addition, in experiment [5], the “transactivation, p21-luc(Fl) (−2325 to +8)” value is recorded as “induce transactivation” and the “effect of T007 on induced p21-luc(Fl) luciferase activity” value is “inhibited”. In addition, in experiment [6], the caveolin-1 induction entry was “did not induce caveolin-1 expression” and the caveolin-1 protein level result was “decreased expression”. Besides, in experiment [7], the “KLF4 mRNA levels” value is on record as “induced KLF4 mRNA levels” and the “effect of T007 on induction of KLF4 mRNA” value was “did not inhibit”.

With `CC(C)C1CCC2(C(=O)O)CCC3(C)C(CCC4C5(C)C=C(C#N)C(=O)C(C)(C)C5CCC43C)C12` (centres unmarked) [CN-BA], in experiment [1], the IC50 is 1000 nM. Further, in experiment [2], the “transactivation, PPARγ-GAL4/pGAL4 and PPRE3-luc” value is reported as “induced transactivation”; the “effect of PPARγ antagonist T007 on induced activities” value is listed as “inhibited by T007”. The “luciferase activity, PPARγ-GAL4/pGAL4 and PPRE3-luc” value in experiment [3] (Panc-28) is reported as “induced luciferase activity”. In addition, in experiment [3] (Panc-28, cotreatment with T007), the “effect of T007 on induced luciferase activity” value is reported as “inhibited”. Besides, in experiment [4], the “effect … of p21 protein” value is “significantly inhibited”, the “cyclin D1 expression” value is on record as “downregulation of cyclin D1”, the p27 expression entry is reported as “induction of p27” and the p21 protein expression entry is “induce p21 protein expression”. Besides, in experiment [5], the “transactivation, p21-luc(Fl) (−2325 to +8)” value is on record as “induce transactivation” and the “effect of T007 on induced p21-luc(Fl) luciferase activity” value is given as “inhibited”. Besides, the “concentration giving significant induction of p21-luc(60)” value in experiment [5] (construct lacking GC-rich sites 3 and 4) turned out to be 7.5 µM. In addition, in experiment [6], the caveolin-1 induction result was “did not induce caveolin-1 expression” and the caveolin-1 protein level entry is listed as “decreased expression”. In experiment [7], the “KLF4 mRNA levels” value is reported as “induced KLF4 mRNA levels” and the “effect of T007 on induction of KLF4 mRNA” value is “did not inhibit”. Besides, the “activation of PPARγ-GAL4 chimera” value in experiment [8] is “activates”.

In the case of `C=C(C)[C@@H]1CC[C@]2(C(=O)O)CC[C@]3(C)[C@H](CC[C@@H]4[C@@]5(C)CC[C@H](O)C(C)(C)[C@@H]5CC[C@]43C)[C@@H]12` [betulinic acid, Betulinic acid], the IC50 in experiment [1] (Homo sapiens) lay in the range of 1000 to 5000 nM. In addition, the “transactivation, PPARγ-GAL4/pGAL4 and PPRE3-luc” value in experiment [2] was “inactive”. Also, the “luciferase activity, PPARγ-GAL4/pGAL4 and PPRE3-luc” value in experiment [3] (Panc-28) was “inactive”. In addition, the “effect … of p21 protein” value in experiment [4] was “not inhibited”. The “effect of T007 on induction of KLF4 mRNA” value in experiment [7] was “did not inhibit”. In experiment [8], the “activation of PPARγ-GAL4 chimera” value was “inactive”.
